Results reported in paper PMC11206695, “Chemical Behavior and Bioactive Properties of Spinorphin Conjugated to 5,5′-Dimethyl- and 5,5′-Diphenylhydantoin Analogs” (Pharmaceuticals, 2024).
Marks after values point to notes of the source that are not given here.

Assays:
Escherichia coli = assay: Antibacterial disc diffusion; type: cell-based; settings: 20 µL of 50 mg/mL on 6 mm disc, 24 h, 37 °C
Method: Antibacterial activity is carried out with reference to the slightly modified method of Murray et al.. The bacteria used were Staphylococcus aureus, Escherichia coli, and Bacillus cereus. To test the antibacterial activity of 6 peptides, it is carried out as follows: taking 100 μL of spectrum bacteria ([…] bacteria) spread on the nutrient agar medium (NA). Furthermore, a paper disc (6 mm in diameter) was placed and then 20 μL of extract with a concentration of 50 mg/mL was dripped onto it. As a positive control, we used […] of chloramphenicol on the paper disc. DMSO 10% is used as a negative control according to peptide solvents. The treatment was repeated three times and then incubated for 24 h at a temperature of 37 °C. After that, an inhibitory power test measurement was carried out by measuring the diameter of the clear zone formed.

[1] = tested on: ivPTZ-induced myoclonic, clonic and tonic seizures in mice; assay: Intravenous pentylenetetrazole seizure (ivPTZ) test; type: in vivo; settings: i.c.v., doses of 0.62 µg and 1.25 µg, vs. vehicle-infused control (p < 0.05; p < 0.01)
Method: (§1) The spinorphin peptide analogues (S, Dm-S, Dm-S5, and Dm-S6 or PhS, PhS5, and PhS6) were administered intracerebroventricularly (i.c.v.) (10 μL/ventricle) at doses of 0.6, 1.2, and 2.4 μg, respectively, using a 28-gauge stainless-steel needle attached to a 50-μL Hamilton® syringe as previously described. The matched group (control) was treated with a vehicle. The seizure test was performed 10 min after the i.c.v. infusion.
Intravenous Pentylenetetrazole Seizure (ivPTZ) Test The convulsant pentylenetetrazole (PTZ) (1%), dissolved in saline, was infused (0.005 mL/s) into a tail vein as previously performed. The activity to raise the threshold of ivPTZ-induced myoclonic, clonic, and tonic seizures and concentrations, quantity of infusion (mL), and mouse body weight were recorded.

[2] = tested on: generalized seizures (MES test) in mice; assay: Maximal electroshock (MES) test; type: in vivo; settings: i.c.v.
Method: as §1
The generalized seizures were induced through a stronger stimulus of 50 mA, 60 Hz, 0.2 s, applied via the same corneal electrodes, in each mouse tested. The suppression of tonic hind limb extension, replaced by a clonic seizure, was accepted as a valid criterion for the anticonvulsant potency of the drug.

[3] = Potentiometric titration for pK and pI; type: physicochemical; settings: 12 µmol peptide, room temperature
Method: Potentiometric titrations were performed to determine acid–base constants at room temperature using a potentiometric cell with a combined glass electrode and OMINS titration system (Metrohm). An OMNIS Digital Burette with an accuracy of ±0.01 mL was used to precisely add the titrant portions to the titrated aliquot (12 µmol) of the stock solution of the peptide compounds. The potentiometric titration results were processed mathematically to construct the titration curves and calculate the acid–base constants according to […] [16]. Isoelectric points correspond to pH points where the analyte and titrant interact in equimolar amounts (pH at the equivalence point).

[4] = tested on: psychomotor seizures (6-Hz test) in mice; assay: 6-Hz test; type: in vivo; settings: i.c.v.; for No. of Animals Protected/No. of Animals Tested: 10 min after infusion
Method: as §1
6-Hz test. Psychomotor seizures were induced by corneal electrodes (constant current shock generator, 32 mA, 6 Hz, 3 s) as previously described. The return to a normal position, 10 s after stimulation, was used as a criterion for protection against psychomotor seizures.

[5] = isoelectric point = pH at equivalence point, potentiometric titration
[6] = potentiometric titration with NaOH, aqueous

## H-LVVYPWT-NH2 [S, H-Leu-Val-Val-Tyr-Pro-Trp-Thr-NH2]
Escherichia coli
  Antibacterial activity against E. coli (inhibitory zone, in words): outperformed peptide analogues
[1]
  Activity against myoclonic twitching, clonic seizures and forelimb tonic seizures (ivPTZ): anticonvulsant activity
[2]; MES test, dose 0.62 µg/10 µL
  % Mortality: 0%
[2]; MES test, dose 1.25 µg/10 µL
  % Mortality: 30%
[2]; MES test, dose 2.5 µg/10 µL
  % Mortality: 50%
  % Protection: 50%
[2]; MES test, dose 2.5 µg/10 µL, 10 min after infusion
  No. of Animals Protected/No. of Animals Tested: 3/6
[2]; text summary of Tables 4 and 5
  Activity in the MES test (in words): inactive
[3]; [5]
  pI1: 4.91
  pI2: 8.31
[3]; [6]
  pKa1: 3.15
  pKa2: 6.78
[4]; dose 0.62 µg/10 µL
  % Protection: 50%
  No. of Animals Protected/No. of Animals Tested: 3/6
[4]; dose 1.25 µg/10 µL
  % Protection: 50%
  No. of Animals Protected/No. of Animals Tested: 3/6
[4]; dose 2.5 µg/10 µL
  % Protection: 67% *
  No. of Animals Protected/No. of Animals Tested: 4/6
